Activity calls are given as the source filed them. The rule behind the calls is not given here.
System: CCRIS mutagenicity, Ames/micronucleus/aberration tests
Test: CCRIS mutagenicity studies

**Q.** With `Nc1ccccc1N` as the molecule, how does the mutagenic call (End Point: IN VITRO CHROMOSOMAL ABERRATIONS, Test System: CHINESE HAMSTER LUNG CELLS (CHL), Metabolic Activation: NONE) read?
**A.** The mutagenic call was “active; positive (structural changes)”.

**Q.** What about the mutagenic call (End Point: IN VITRO CHROMOSOMAL ABERRATIONS, Test System: CHINESE HAMSTER LUNG CELLS (CHL), Metabolic Activation: RAT, LIVER, S-9, KC-400) of the same molecule?
**A.** Its mutagenic call is “inactive; negative”.

**Q.** What about the mutagenic call (End Point: IN VITRO CHROMOSOMAL ABERRATIONS, Test System: CHINESE HAMSTER OVARY CELLS (CHO), Metabolic Activation: NONE) of the same molecule?
**A.** The mutagenic call was “active; positive (structural changes)”.

**Q.** And the mutagenic call (End Point: IN VITRO CHROMOSOMAL ABERRATIONS, Test System: CHINESE HAMSTER OVARY CELLS (CHO), Metabolic Activation: RAT, LIVER, S-9, AROCLOR 1254)?
**A.** The mutagenic call was “active; positive (structural changes)”.

**Q.** What about the mutagenic call (End Point: IN VITRO CHROMOSOMAL ABERRATIONS, Test System: CHL CELLS, Metabolic Activation: NONE) of the same molecule?
**A.** Its mutagenic call is “active; positive (structural changes)”.

**Q.** What about the mutagenic call (End Point: IN VITRO CHROMOSOMAL ABERRATIONS, Test System: CHL CELLS, Metabolic Activation: RAT, LIVER, S-9, SODIUM PHENOBARBITAL AND 5,6-BENZOFLAVONE) of the same molecule?
**A.** Its mutagenic call is “active; positive (structural changes)”.

**Q.** And the mutagenic call (Test System: AMES SALMONELLA TYPHIMURIUM, Strain/Indicator: TA97, Metabolic Activation: HAMSTER, LIVER, S-9, AROCLOR 1254 (10%), Method: PREINCUBATION)?
**A.** The mutagenic call was “active; positive”.

**Q.** What about the mutagenic call (Test System: AMES SALMONELLA TYPHIMURIUM, Strain/Indicator: TA97, Metabolic Activation: NONE, Method: PREINCUBATION) of the same molecule?
**A.** The mutagenic call was “inactive; negative”.

**Q.** What about the mutagenic call (Test System: AMES SALMONELLA TYPHIMURIUM, Strain/Indicator: TA97, Metabolic Activation: RAT, LIVER, S-9, AROCLOR 1254 (10%), Method: PREINCUBATION) of the same molecule?
**A.** The mutagenic call was “active; positive”.

**Q.** What about the mutagenic call (Test System: AMES SALMONELLA TYPHIMURIUM, Strain/Indicator: TA98(NR), Metabolic Activation: NONE, Method: PREINCUBATION) of the same molecule?
**A.** The mutagenic call was “inactive; negative”.

**Q.** What about the mutagenic call (Test System: AMES SALMONELLA TYPHIMURIUM, Strain/Indicator: TA98(NR), Metabolic Activation: RAT, LIVER, S-9, AROCLOR 1254, Method: PREINCUBATION) of the same molecule?
**A.** The mutagenic call was “active; positive”.

**Q.** And the mutagenic call (Test System: AMES SALMONELLA TYPHIMURIUM, Strain/Indicator: TA98, Metabolic Activation: HAMSTER, LIVER, S-9, AROCLOR 1254 (10%), Method: PREINCUBATION)?
**A.** Its mutagenic call is “active; positive”.

**Q.** And the mutagenic call (Test System: AMES SALMONELLA TYPHIMURIUM, Strain/Indicator: TA98, Metabolic Activation: NONE, Method: STANDARD PLATE)?
**A.** Its mutagenic call is “inactive; negative”.

**Q.** And the mutagenic call (Test System: AMES SALMONELLA TYPHIMURIUM, Strain/Indicator: TA98, Metabolic Activation: PEA APICAL BUD S-9, Method: PREINCUBATION)?
**A.** The mutagenic call was “active; positive”.

**Q.** What about the mutagenic call (Test System: AMES SALMONELLA TYPHIMURIUM, Strain/Indicator: TA98, Metabolic Activation: PEA APICAL BUD S-9, Method: STANDARD PLATE) of the same molecule?
**A.** Its mutagenic call is “active; positive”.

**Q.** And the mutagenic call (Test System: AMES SALMONELLA TYPHIMURIUM, Strain/Indicator: TA98, Metabolic Activation: PLANT (PERSEA AMERICANA) S-117, Method: STANDARD PLATE)?
**A.** The mutagenic call was “inactive; negative”.

**Q.** What about the mutagenic call (Test System: AMES SALMONELLA TYPHIMURIUM, Strain/Indicator: TA98, Metabolic Activation: PLANT (ZEA MAYS) S-9, Method: STANDARD PLATE) of the same molecule?
**A.** The mutagenic call was “inactive; negative”.

**Q.** And the mutagenic call (Test System: AMES SALMONELLA TYPHIMURIUM, Strain/Indicator: TA98, Metabolic Activation: RAT LIVER S-9, PHENOBARBITAL AND BETA-NAPHTHOFLAVONE, Method: PREINCUBATION)?
**A.** Its mutagenic call is “active; positive”.

**Q.** And the mutagenic call (Test System: AMES SALMONELLA TYPHIMURIUM, Strain/Indicator: TA98, Metabolic Activation: RAT, LIVER, S-9, AROCLOR 1254 (10%), Method: PREINCUBATION)?
**A.** The mutagenic call was “active; positive”.

**Q.** What about the mutagenic call (Test System: AMES SALMONELLA TYPHIMURIUM, Strain/Indicator: TA98, Metabolic Activation: RAT, LIVER, S-9, AROCLOR 1254, Method: PREINCUBATION) of the same molecule?
**A.** The mutagenic call was “active; positive”.

**Q.** What about the mutagenic call (Test System: AMES SALMONELLA TYPHIMURIUM, Strain/Indicator: TA98, Metabolic Activation: RAT, LIVER, S-9, AROCLOR 1254, Method: STANDARD PLATE) of the same molecule?
**A.** Its mutagenic call is “active; positive”.

**Q.** And the mutagenic call (Test System: AMES SALMONELLA TYPHIMURIUM, Strain/Indicator: TA98, Metabolic Activation: RAT, LIVER, S-9, PCB, Method: PREINCUBATION)?
**A.** Its mutagenic call is “active; positive”.

**Q.** What about the mutagenic call (Test System: AMES SALMONELLA TYPHIMURIUM, Strain/Indicator: TA100(NR), Metabolic Activation: NONE, Method: PREINCUBATION) of the same molecule?
**A.** The mutagenic call was “inactive; negative”.

**Q.** What about the mutagenic call (Test System: AMES SALMONELLA TYPHIMURIUM, Strain/Indicator: TA100(NR), Metabolic Activation: RAT, LIVER, S-9, AROCLOR 1254, Method: PREINCUBATION) of the same molecule?
**A.** Its mutagenic call is “active; positive”.

**Q.** What about the mutagenic call (Test System: AMES SALMONELLA TYPHIMURIUM, Strain/Indicator: TA100, Metabolic Activation: HAMSTER, LIVER, S-9, AROCLOR 1254 (10%), Method: PREINCUBATION) of the same molecule?
**A.** The mutagenic call was “active; positive”.

**Q.** What about the mutagenic call (Test System: AMES SALMONELLA TYPHIMURIUM, Strain/Indicator: TA100, Metabolic Activation: NONE, Method: STANDARD PLATE) of the same molecule?
**A.** Its mutagenic call is “inactive; negative”.

**Q.** What about the mutagenic call (Test System: AMES SALMONELLA TYPHIMURIUM, Strain/Indicator: TA100, Metabolic Activation: PEA APICAL BUD S-9, Method: PREINCUBATION) of the same molecule?
**A.** The mutagenic call was “active; positive”.

**Q.** And the mutagenic call (Test System: AMES SALMONELLA TYPHIMURIUM, Strain/Indicator: TA100, Metabolic Activation: PEA APICAL BUD S-9, Method: STANDARD PLATE)?
**A.** Its mutagenic call is “active; positive”.

**Q.** And the mutagenic call (Test System: AMES SALMONELLA TYPHIMURIUM, Strain/Indicator: TA100, Metabolic Activation: PLANT (PERSEA AMERICANA) S-117, Method: STANDARD PLATE)?
**A.** The mutagenic call was “inactive; negative”.

**Q.** And the mutagenic call (Test System: AMES SALMONELLA TYPHIMURIUM, Strain/Indicator: TA100, Metabolic Activation: PLANT (ZEA MAYS) S-9, Method: STANDARD PLATE)?
**A.** The mutagenic call was “inactive; negative”.

**Q.** What about the mutagenic call (Test System: AMES SALMONELLA TYPHIMURIUM, Strain/Indicator: TA100, Metabolic Activation: RAT LIVER S-9, PHENOBARBITAL AND BETA-NAPHTHOFLAVONE, Method: PREINCUBATION) of the same molecule?
**A.** Its mutagenic call is “active; positive”.

**Q.** What about the mutagenic call (Test System: AMES SALMONELLA TYPHIMURIUM, Strain/Indicator: TA100, Metabolic Activation: RAT, LIVER, S-9, AROCLOR 1254 (10%), Method: PREINCUBATION) of the same molecule?
**A.** Its mutagenic call is “active; positive”.

**Q.** What about the mutagenic call (Test System: AMES SALMONELLA TYPHIMURIUM, Strain/Indicator: TA100, Metabolic Activation: RAT, LIVER, S-9, PCB, Method: PREINCUBATION) of the same molecule?
**A.** Its mutagenic call is “active; positive”.

**Q.** What about the mutagenic call (Test System: AMES SALMONELLA TYPHIMURIUM, Strain/Indicator: TA1535, Metabolic Activation: HAMSTER, LIVER, S-9, AROCLOR 1254 (10%), Method: PREINCUBATION) of the same molecule?
**A.** Its mutagenic call is “inactive; negative”.

**Q.** And the mutagenic call (Test System: AMES SALMONELLA TYPHIMURIUM, Strain/Indicator: TA1535, Metabolic Activation: NONE, Method: PREINCUBATION)?
**A.** Its mutagenic call is “inactive; negative”.

**Q.** And the mutagenic call (Test System: AMES SALMONELLA TYPHIMURIUM, Strain/Indicator: TA1535, Metabolic Activation: RAT LIVER S-9, PHENOBARBITAL AND BETA-NAPHTHOFLAVONE, Method: PREINCUBATION)?
**A.** Its mutagenic call is “inactive; negative”.

**Q.** What about the mutagenic call (Test System: AMES SALMONELLA TYPHIMURIUM, Strain/Indicator: TA1535, Metabolic Activation: RAT, LIVER, S-9, AROCLOR 1254 (10%), Method: PREINCUBATION) of the same molecule?
**A.** Its mutagenic call is “inactive; negative”.

**Q.** What about the mutagenic call (Test System: AMES SALMONELLA TYPHIMURIUM, Strain/Indicator: TA1537, Metabolic Activation: NONE, Method: PREINCUBATION) of the same molecule?
**A.** The mutagenic call was “inactive; negative”.

**Q.** And the mutagenic call (Test System: AMES SALMONELLA TYPHIMURIUM, Strain/Indicator: TA1537, Metabolic Activation: RAT LIVER S-9, PHENOBARBITAL AND BETA-NAPHTHOFLAVONE, Method: PREINCUBATION)?
**A.** Its mutagenic call is “active; positive”.

**Q.** And the mutagenic call (Test System: AMES SALMONELLA TYPHIMURIUM, Strain/Indicator: TA1538, Metabolic Activation: RAT, LIVER, S-9, AROCLOR 1254, Method: STANDARD PLATE)?
**A.** Its mutagenic call is “active; positive”.

**Q.** What about the mutagenic call (Test System: AMES SALMONELLA TYPHIMURIUM, Strain/Indicator: TA1538, Metabolic Activation: RAT, LIVER, S-9, PHENOBARBITAL, Method: STANDARD PLATE) of the same molecule?
**A.** The mutagenic call was “active; positive”.

**Q.** And the mutagenic call (Test System: AMES SALMONELLA TYPHIMURIUM, Strain/Indicator: YG1024, Metabolic Activation: PLANT (PERSEA AMERICANA) S-117, Method: STANDARD PLATE)?
**A.** The mutagenic call was “inactive; negative”.

**Q.** What about the mutagenic call (Test System: AMES SALMONELLA TYPHIMURIUM, Strain/Indicator: YG1024, Metabolic Activation: PLANT (ZEA MAYS) S-9, Method: STANDARD PLATE) of the same molecule?
**A.** The mutagenic call was “inactive; negative”.

**Q.** What about the mutagenic call (Test System: AMES SALMONELLA TYPHIMURIUM, Strain/Indicator: YG1029, Metabolic Activation: PLANT (PERSEA AMERICANA) S-117, Method: STANDARD PLATE) of the same molecule?
**A.** Its mutagenic call is “inactive; negative”.

**Q.** And the mutagenic call (Test System: AMES SALMONELLA TYPHIMURIUM, Strain/Indicator: YG1029, Metabolic Activation: PLANT (ZEA MAYS) S-9, Method: STANDARD PLATE)?
**A.** Its mutagenic call is “inactive; negative”.

**Q.** What about the mutagenic call (Test System: E.COLI, Strain/Indicator: WP2UVRA, Metabolic Activation: NONE, Method: PREINCUBATION) of the same molecule?
**A.** The mutagenic call was “inactive; negative”.

From PubChem BioAssay AID1259407 (Chemical Carcinogenesis Research Information System (CCRIS), 2018)
